Our source for the pest or weed control values is patent US20180186742A1, “PICOLINAMIDES AS FUNGICIDES” (Dow AgroSciences LLC, priority 2017, published 2018).

Structures are written as SMILES. Like-named read-outs stand apart in the source and are kept apart here. Where only a bound is given, the exact number is not on record here.

Common to all, as to format: in vivo
For assay [1], the system named is Phakopsora pachyrhizi. The assay can be described thus: Asian soybean rust (PHAKPA), disease control on soybean seedlings. The note with it: High volume application at 25 ppm. The essentials: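 Two-week-old Williams 82 soybean seedlings were sprayed to run-off with compound in acetone/water (1:9) containing 0.011% Tween 20. Inoculation was 3 days before (curative) or 1 day after (protectant) treatment, followed by 24 h dark dew at 22 °C, 100% RH, then 23 °C; disease severity scored on sprayed leaves.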

Assay [2] relates to Zymoseptoria tritici. The experiment in a line: Leaf blotch of wheat (SEPTTR), disease control on wheat seedlings. The note with it: low volume application at 121.5 g/H. The essentials: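 Z. tritici spores were inoculated onto wheat seedlings (Yuma, first leaf emerged) either before or after treatment. Treatment was an automated spray to run-off of acetone/Triton X-100 water solutions, or a track spray of EC formulations with 0.1% Trycol 5941. Plants were held in dew chambers at 20 °C and then a greenhouse at 20 °C. First-leaf severity (0–100%) was converted to percent control against untreated plants.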

Assay [3] relates to Puccinia triticina. The assay can be described thus: Wheat brown rust (PUCCRT), disease control on wheat seedlings. The note with it: low volume application at 121.5 g/H. Put shortly: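 Compounds in acetone, diluted with nine volumes of water containing 110 ppm Triton X-100, sprayed to run-off on first-leaf Yuma wheat seedlings; track-spray tests used EC formulations with 0.1% Trycol 5941. Puccinia triticina spores applied before or after treatment. Overnight dark dew room at 22° C, 100% humidity, then greenhouse at 24° C.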

Setting [4] is: 24 h, 1 Day Protectant, read-out: PHAKPA 1DP disease control rating.
The mark [5] stands for this setting: 72 h, 3 Day Curative, read-out: PHAKPA 3DC disease control rating.
[6] abbreviates: 24 h, 1 Day Protectant, wheat leaf blotch, read-out: SEPTTR 1DP disease control, LV activity.
Where [7] appears, read: 72 h, 3 Day Curative, wheat leaf blotch, read-out: SEPTTR 3DC disease control, LV activity.
Where [8] appears, read: 24 h, 1 Day Protectant, wheat brown rust, read-out: PUCCRT 1DP disease control, LV activity.
The mark [9] stands for this setting: 72 h, 3 Day Curative, wheat brown rust, read-out: PUCCRT 3DC disease control, LV activity.
Where [10] appears, read: 24 h, 1 Day Protectant, read-out: SEPTTR disease control, 1DP, LV activity.
[11] abbreviates: 72 h, 3 Day Curative, read-out: SEPTTR disease control, 3DC, LV activity.
Where [12] appears, read: 24 h, 1 Day Protectant, read-out: PUCCRT disease control, 1DP, LV activity.
Where [13] appears, read: 72 h, 3 Day Curative, read-out: PUCCRT disease control, 3DC, LV activity.

Turning to `COc1ccnc(C(=O)N[C@@H](C)C(=O)O[C@@H](C)[C@@H](c2ccc(C)cc2F)C(C)C)c1OC(C)=O` [Compound 369], the pest or weed control at 25 ppm in assay [1] (setting [4]) and in assay [1] (setting [5]) was less than 80% throughout. The pest or weed control at 121.5 g/ha in assay [2] (setting [6]) was less than 80%; in assay [2] (setting [7]) it was less than 80%; in assay [3] (setting [8]) it was greater than 80%; in assay [3] (setting [9]), less than 80%.

Regarding `COc1ccnc(C(=O)N[C@@H](C)C(=O)O[C@@H](C)[C@@H](c2ccc(F)cc2C)C2CCC2)c1OC(C)=O` [Compound 183], the pest or weed control at 25 ppm in assay [1] (setting [4]) and in assay [1] (setting [5]) was less than 80% in each case. For the same molecule, the pest or weed control at 121.5 g/ha in assay [2] (setting [10]) was less than 80%; in assay [2] (setting [11]) it was greater than 80%; in assay [3] (setting [12]) it was less than 80%; in assay [3] (setting [13]), less than 80%.

Take `COc1ccnc(C(=O)N[C@@H](C)C(=O)O[C@@H](C)[C@@H](c2ccc(F)cc2C)C(C)C)c1OC(C)=O` [Compound 178]: the pest or weed control at 25 ppm in assay [1] (setting [4]) was less than 0%; in assay [1] (setting [5]), less than 80%. The pest or weed control at 121.5 g/ha in assay [2] (setting [10]) was less than 0%; in assay [2] (setting [11]) it was less than 80%; in assay [3] (setting [12]) it was greater than 80%; in assay [3] (setting [13]), less than 80%.

On to `COc1ccnc(C(=O)N[C@@H](C)C(=O)O[C@H](C)[C@H](c2ccc(F)cc2C)C2CCCCC2)c1OC(C)=O` [Compound 191], for which the pest or weed control at 25 ppm is less than 80% in assay [1] (setting [4]) and less than 0% in assay [1] (setting [5]). The pest or weed control at 121.5 g/ha in assay [2] (setting [10]) is less than 80%; in assay [2] (setting [11]), less than 80%; in assay [3] (setting [12]), less than 0%; in assay [3] (setting [13]) it was less than 80%.

Regarding `COc1ccnc(C(=O)N[C@@H](C)C(=O)O[C@@H](C)[C@@H](c2ccc(C)cc2C)C(C)C)c1OCOC(C)=O` [Compound 204], the pest or weed control at 25 ppm in assay [1] (setting [4]) is less than 80%; in assay [1] (setting [5]), less than 0%. For the same molecule, the pest or weed control at 121.5 g/ha in assay [2] (setting [10]) is less than 0%; in assay [2] (setting [11]), less than 80%; in assay [3] (setting [12]) it was greater than 80%; in assay [3] (setting [13]), less than 80%.

In the case of `CC[C@H](C)[C@H](NC(=O)c1nccc(OC)c1OC(C)=O)C(=O)O[C@@H](C)[C@H](c1ccc(F)cc1C)C(C)C` [Compound 348], the pest or weed control at 25 ppm is greater than 80% in assay [1] (setting [4]) and less than 80% in assay [1] (setting [5]). The pest or weed control at 121.5 g/ha in assay [2] (setting [10]) was less than 80%; in assay [2] (setting [11]), less than 80%; in assay [3] (setting [12]), greater than 80%; in assay [3] (setting [13]), less than 80%.

On to `COc1ccnc(C(=S)N[C@@H](C)C(=O)O[C@@H](C)[C@@H](c2ccccc2)C2CCCC2)c1OC(C)=O` [Compound 177], for which the pest or weed control at 25 ppm in assay [1] (setting [4]) was greater than 80%; in assay [1] (setting [5]) it was less than 0%. For the same molecule, the pest or weed control at 121.5 g/ha in assay [2] (setting [10]) is less than 80%; in assay [2] (setting [11]), less than 0%; in assay [3] (setting [12]), less than 80%; in assay [3] (setting [13]), less than 0%.

With `CCC(C)[C@H](c1ccc(F)cc1OC)[C@H](C)OC(=O)[C@H](C)NC(=O)c1nccc(OC)c1OC(C)=O` (stereo partly drawn) [Compound 225], the pest or weed control at 25 ppm was greater than 80% in assay [1] (setting [4]) and less than 80% in assay [1] (setting [5]). Further, the pest or weed control at 121.5 g/ha in assay [2] (setting [10]) was greater than 80%; in assay [2] (setting [11]), greater than 80%; in assay [3] (setting [12]), greater than 80%; in assay [3] (setting [13]), less than 80%.

For the molecule `COc1ccnc(C(=O)N[C@@H](C)C(=O)O[C@@H](C)[C@H](c2ccc(F)cc2C)C2CCC2)c1OC(C)=O` [Compound 189], the pest or weed control at 25 ppm is greater than 80% in assay [1] (setting [4]) and less than 80% in assay [1] (setting [5]). The pest or weed control at 121.5 g/ha was greater than 80% in assay [2] (setting [10]), greater than 80% in assay [2] (setting [11]), greater than 80% in assay [3] (setting [12]) and less than 80% in assay [3] (setting [13]).

Take `COc1ccnc(C(=O)N[C@@H](C)C(=O)O[C@@H](C)[C@H](c2ccccc2F)C(C)C)c1OC(C)=O` [Compound 360]: the pest or weed control at 25 ppm in assay [1] (setting [4]) and in assay [1] (setting [5]) was greater than 80% throughout. In addition, the pest or weed control at 121.5 g/ha in assay [2] (setting [10]) was less than 80%; in assay [2] (setting [11]), greater than 80%; in assay [3] (setting [12]), greater than 80%; in assay [3] (setting [13]) it was greater than 80%.

Regarding `COc1cc(F)ccc1[C@H](C(C)C)[C@H](C)OC(=O)[C@H](C)NC(=O)c1nccc(OC)c1OCOC(C)=O` [Compound 237], the pest or weed control at 25 ppm in assay [1] (setting [4]) and in assay [1] (setting [5]) was greater than 80% throughout. Moreover, the pest or weed control at 121.5 g/ha in assay [2] (setting [10]) is less than 80%; in assay [2] (setting [11]), less than 80%; in assay [3] (setting [12]), greater than 80%; in assay [3] (setting [13]) it was greater than 80%.

Regarding `COc1ccnc(C(=O)N[C@@H](C)C(=O)O[C@@H](C)[C@H](c2ccc(F)cc2C)C2CCCCC2)c1OC(C)=O` [Compound 185], the pest or weed control at 25 ppm in assay [1] (setting [4]) is greater than 80%; in assay [1] (setting [5]) it was less than 80%. In addition, the pest or weed control at 121.5 g/ha in assay [2] (setting [10]) was greater than 80%; in assay [2] (setting [11]), greater than 80%; in assay [3] (setting [12]), greater than 80%; in assay [3] (setting [13]), less than 80%.

Consider `COCCC(=O)Oc1c(OC)ccnc1C(=O)N[C@@H](CC(C)C)C(=O)O[C@@H](C)[C@H](c1ccc(F)cc1C)C(C)C` [Compound 353], for which the pest or weed control at 25 ppm in assay [1] (setting [4]) was greater than 80%; in assay [1] (setting [5]), less than 80%. Moreover, the pest or weed control at 121.5 g/ha in assay [2] (setting [10]), in assay [2] (setting [11]), in assay [3] (setting [12]) and in assay [3] (setting [13]) was less than 80% in each case.

Consider `COc1ccnc(C(=O)N[C@@H](C)C(=O)O[C@@H](C)[C@@H](c2ccc(Cl)cc2Cl)C(C)C)c1OC(C)=O` [Compound 370], for which the pest or weed control at 25 ppm in assay [1] (setting [4]) and in assay [1] (setting [5]) was less than 80% in each case. The pest or weed control at 121.5 g/ha in assay [2] (setting [6]) is less than 80%; in assay [2] (setting [7]), less than 80%; in assay [3] (setting [8]) it was less than 80%; in assay [3] (setting [9]) it was less than 0%.

For the molecule `COc1ccnc(C(=O)N[C@@H](C)C(=O)O[C@@H](C)[C@H](c2ccc(F)cc2C)C2CCC2)c1OCOC(C)=O` [Compound 197], the pest or weed control at 25 ppm in assay [1] (setting [4]) and in assay [1] (setting [5]) was greater than 80% throughout. The pest or weed control at 121.5 g/ha in assay [2] (setting [10]), in assay [2] (setting [11]), in assay [3] (setting [12]) and in assay [3] (setting [13]) was greater than 80% in each case.

Consider `COc1cc(F)ccc1[C@@H](C1CCCCC1)[C@H](C)OC(=O)[C@H](C)NC(=O)c1nccc(OC)c1OC(C)=O` [Compound 223], for which the values for the pest or weed control at 25 ppm in assay [1] (setting [4]) and in assay [1] (setting [5]) were less than 80% and less than 0%, respectively. The pest or weed control at 121.5 g/ha in assay [2] (setting [10]) is greater than 80%; in assay [2] (setting [11]) it was greater than 80%; in assay [3] (setting [12]), less than 80%; in assay [3] (setting [13]), less than 80%.

Consider `COc1cc(F)ccc1[C@@H](C1CCCCC1)[C@H](C)OC(=O)[C@H](C)NC(=O)c1nccc(OC)c1OCOC(C)=O` [Compound 233], for which the pest or weed control at 25 ppm in assay [1] (setting [4]) and in assay [1] (setting [5]) was less than 80% in each case. For the same molecule, the pest or weed control at 121.5 g/ha was greater than 80% in assay [2] (setting [10]), greater than 80% in assay [2] (setting [11]), less than 80% in assay [3] (setting [12]) and less than 80% in assay [3] (setting [13]).

In the case of `CC[C@H](C)[C@H](NC(=O)c1nccc(OC)c1OC(=O)CCOC)C(=O)O[C@@H](C)[C@H](c1ccc(F)cc1C)C(C)C` [Compound 352], the pest or weed control at 25 ppm in assay [1] (setting [4]) is greater than 80%; in assay [1] (setting [5]), less than 80%. For the same molecule, the pest or weed control at 121.5 g/ha is less than 80% in assay [2] (setting [10]), less than 80% in assay [2] (setting [11]), greater than 80% in assay [3] (setting [12]) and less than 80% in assay [3] (setting [13]).

With `COc1ccnc(C(=O)N[C@@H](C)C(=O)O[C@@H](C)[C@H](c2cc(F)ccc2C)C(C)C)c1OC(C)=O` [Compound 361], the pest or weed control at 25 ppm in assay [1] (setting [4]) and in assay [1] (setting [5]) was greater than 80% in each case. Also, the pest or weed control at 121.5 g/ha in assay [2] (setting [10]) is less than 80%; in assay [2] (setting [11]), less than 80%; in assay [3] (setting [12]), greater than 80%; in assay [3] (setting [13]), less than 80%.
